Earlier results as cited in patent US6656217B1, “Medical device coated with a polymer containing a nitric oxide releasing organometallic nitrosyl compound useful for the prevention of platelet aggregation” (NovoVascular, Inc., priority 1996, dated 2003).

Tested on: platelet aggregation

## [Cl][Ru]([Cl])[Cl].[N-]=O [ruthenium nitrosyl trichioride]
  inhibition of platelet aggregation by nitric oxide generation from light activation: failed to inhibit platelet aggregation
